{"source": "patent US20040097594A1", "about": "(priority 1998, published 2004)", "key": {"[1]": {"system": "HIV-1 (strain IIIB)", "test": "microbe, parasite or virus in culture", "type": "cell-based", "details": "lower line of each compound's entry, read-out: IC50 (MT-4 cells)"}, "[2]": {"molecular_target": "HIV-1 protease (Human immunodeficiency virus type 1 group M subtype B, UniProt P04585)", "test": "biochemical"}, "[3]": {"details": "Human immunodeficiency virus 1, 120 h, MT4 cells infected with HIV-1 strain IIIB, 5 days"}, "[4]": {"details": "HIV-1 protease, upper line of each compound's entry, read-out: Ki (enzyme)"}}, "note": "pIC50, pKi: −log10 of the molar value. Like-named read-outs stand apart in the source and are kept apart here."}
{"smiles": "COc1ccc(S(=O)(=O)N(C[C@@H](O)[C@H](Cc2ccccc2)NC(=O)[C@H](CC(N)=O)NC(=O)c2ccc3ccccc3n2)OC2CCCCC2)cc1", "note": "[Compound 66]", "values": [{"measurement": "pIC50", "setting": "[1]; Human immunodeficiency virus 1, IIIB, MT4, 120 h, […]", "result": "≥ 7.00"}, {"measurement": "pKi", "setting": "[2]", "result": "> 9.00"}]}
{"smiles": "COCOc1ccc(S(=O)(=O)N(C[C@@H](O)[C@H](Cc2ccccc2)NC(=O)OC(C)(C)C)OC2CCCC2)cc1", "note": "[Compound 109, tert-butyl N-((1S,2R)-1-benzyl-3-(cyclopentyloxy)[(4-methoxymethoxyphenyl)sulfonyl]amino-2-hydroxypropyl)carbamate]", "values": [{"measurement": "pIC50", "setting": "[1]; [3]", "result": "≤ 7.00"}, {"measurement": "pKi", "setting": "[2]; [4]", "result": "7.00 to 8.00"}]}
{"smiles": "O=C(N[C@@H](Cc1ccccc1)[C@@H](CN(OC1CCCC1)S(=O)(=O)c1ccc2c(c1)OCCO2)OP(=O)(O)O)O[C@H]1CO[C@H]2OCC[C@H]21", "note": "[Compound 144, (3R,3aS,6aR)hexahydrofuro[2,3-b]furan-3-yl N-[(1S,2R)-1-benzyl-3-[(cyclopentyloxy)(2,3-dihydro-1,4-benzodioxin-6-ylsulfonyl)amino]-2-(phosphonooxy)propyl]carbamate]", "values": [{"measurement": "pIC50", "setting": "[1]; [3]", "result": "≥ 7.00"}, {"measurement": "pKi", "setting": "[2]", "result": "> 9.00"}]}
{"smiles": "Nc1cccc(S(=O)(=O)N(C[C@@H](O)[C@H](Cc2ccccc2)NC(=O)O[C@H]2CO[C@H]3OCC[C@H]32)OC2CCCC2)c1", "note": "(single isomer, unassigned) [Compound 77]", "values": [{"measurement": "pIC50", "setting": "[1]; [3]", "result": "≥ 7.00"}, {"measurement": "pKi", "setting": "[2]; [4]", "result": "> 9.00"}]}
{"smiles": "O=C(NC(Cc1ccccc1)C(O)CN(OC1CCCC1)S(=O)(=O)c1cccc(NCCO)c1)OC1COC2OCCC12", "note": "[Compound 36, (3R,3aS,6aR)hexahydrofuro[2,3-b]furan-3-yl N-(1S,2R)-1-benzyl-3-[(cyclopentyloxy)(3-[(2-hydroxyethyl)amino]phenylsulfonyl)amino]-2-hydroxypropylcarbamate and (3S,3aR,6aS)hexahydrofuro[2,3-b]furan-3-yl N-(1S,2R)-1-benzyl-3-[(cyclopentyloxy) (3-[(2-hydroxyethyl)amino]phenylsulfonyl)amino]-2-hydroxypropylcarbamate]", "values": [{"measurement": "pIC50", "setting": "[1]; [3]", "result": "≥ 7.00"}, {"measurement": "pKi", "setting": "[2]; [4]", "result": "> 9.00"}]}
{"smiles": "O=C(N[C@@H](Cc1ccccc1)[C@H](O)CN(OC1CCCC1)S(=O)(=O)c1ccc2nc[nH]c2c1)O[C@H]1CO[C@H]2OCC[C@H]21", "note": "[Compound 46, (3R,3aS,6aR)hexahydrofuro[2,3-b]furan-3-yl N-(1S,2R)-3-[(1H-benzimidazol-6-ylsulfonyl)(cyclopentyloxy)amino]-1-benzyl-2-hydroxypropylcarbamate]", "values": [{"measurement": "pIC50", "setting": "[1]; [3]", "result": "≥ 7.00"}, {"measurement": "pKi", "setting": "[2]; [4]", "result": "> 9.00"}]}
{"smiles": "O=C(N[C@@H](Cc1ccccc1)[C@H](O)CN(OC1CCCC1)S(=O)(=O)c1cccc(O)c1)O[C@H]1CO[C@H]2OCC[C@H]21", "note": "[Compound 44, (3R,3aS,6aR)hexahydrofuro[2,3-b]furan-3-yl N-((1S,2R)-1-benzyl-3-(cyclopentyloxy)[(3-hydroxyphenyl)sulfonyl]amino-2-hydroxypropyl)carbamate]", "values": [{"measurement": "pIC50", "setting": "[1]; [3]", "result": "≥ 7.00"}, {"measurement": "pKi", "setting": "[2]; [4]", "result": "> 9.00"}]}
{"smiles": "O=C(N[C@@H](Cc1ccccc1)[C@H](O)CN(OC1CCOCC1)S(=O)(=O)c1cccc(O)c1)O[C@H]1CO[C@H]2OCC[C@H]21", "note": "[Compound 148, (3R,3aS,6aR)hexahydrofuro[2,3-b]furan-3-yl 1-benzyl-2-hydroxy-3-[[(3-hydroxyphenyl)sulfonyl](tetrahydro-2H-pyran-4-yloxy)amino]propylcarbamate]", "values": [{"measurement": "pIC50", "setting": "[1]; [3]", "result": "≥ 7.00"}, {"measurement": "pKi", "setting": "[2]; [4]", "result": "> 9.00"}]}
{"smiles": "COc1ccc(S(=O)(=O)N(C[C@@H](O)[C@H](Cc2ccccc2)NC(=O)OC(C)(C)C)OC2CCOC2)cc1", "note": "(stereo partly drawn) [Compound 20, tert-butyl N-(1S,2R)-1-benzyl-2-hydroxy-3-[[(4-methoxyphenyl)sulfonyl](tetrahydro-3-furanyloxy)amino]propylcarbamate]", "values": [{"measurement": "pIC50", "setting": "[1]; [3]", "result": "< 6.00"}, {"measurement": "pKi", "setting": "[2]; [4]", "result": "8.00 to 9.00"}]}
{"smiles": "COc1ccc(S(=O)(=O)N(C[C@@H](O)[C@H](Cc2ccccc2)NC(=O)O[C@@H]2CO[C@H]3OCC[C@H]32)OC2CCCC2)cc1", "note": "[Compound 117]", "values": [{"measurement": "pIC50", "setting": "[1]; [3]", "result": "6.00 to 6.30"}, {"measurement": "pKi", "setting": "[2]; [4]", "result": "< 7.00"}]}
{"smiles": "CC(C)(C)OC(=O)CNc1cccc(S(=O)(=O)N(CC(O)C(Cc2ccccc2)NC(=O)OC2COC3OCCC23)OC2CCCC2)c1", "note": "(mixture of isomers) [Compound 30, tert-butyl 2-(3-[[(2R,3S)-3-([(3R,3aS,6aR)hexahydrofuro[2,3-b]furan-3-yloxy]carbonylamino)-2-hydroxy-4-phenylbutyl](cyclopentyloxy)amino]sulfonylanilino)acetate and tert-butyl 2-(3-[[(2R,3S)-3-([(3S,3aR,6aS)hexahydrofuro[2,3-b]furan-3-yloxy]carbonylamino)-2-hydroxy-4-phenylbutyl](cyclopentyloxy)amino]sulfonylanilino)acetate]", "values": [{"measurement": "pIC50", "setting": "[1]; [3]", "result": "6.30 to 7.00"}, {"measurement": "pKi", "setting": "[2]; [4]", "result": "> 9.00"}]}
{"smiles": "O=C(N[C@@H](Cc1ccccc1)[C@H](O)CN(OC1CCCCC1)S(=O)(=O)c1ccc2c(c1)OCO2)O[C@H]1CO[C@H]2OCC[C@H]21", "note": "[Compound 155, (3R,3aS,6aR)hexahydrofuro[2,3-b]furan-3-yl(1S,2R)-3-[(1,3-benzodioxol-5-ylsulfonyl)(cyclohexyloxy)amino]-1-benzyl-2-hydroxypropylcarbamate]", "values": [{"measurement": "pIC50", "setting": "[1]; [3]", "result": "≥ 7.00"}, {"measurement": "pKi", "setting": "[2]; [4]", "result": "> 9.00"}]}
{"smiles": "COC(=O)Nc1nc2cc(S(=O)(=O)N(C[C@@H](O)[C@H](Cc3ccccc3)NC(=O)OC3CO[C@H]4OCC[C@@H]34)OC3CCCC3)ccc2[nH]1", "note": "(mixture of isomers) [Compound 54, (3aS,6aR)Hexahydrofuro[2,3-b]furan-3-yl N-(1S,2R)-1-benzyl-3-[(cyclopentyloxy)(2-[(methoxycarbonyl)amino]-1H benzimidazol-5-ylsulfonyl)amino]-2-hydroxypropylcarbamate]", "values": [{"measurement": "pIC50", "setting": "[1]; [3]", "result": "≥ 7.00"}, {"measurement": "pKi", "setting": "[2]; [4]", "result": "> 9.00"}]}
{"smiles": "COC(=O)Nc1nc2cc(S(=O)(=O)N(C[C@@H](O)[C@H](Cc3ccccc3)NC(=O)[C@H](CC(N)=O)NC(=O)c3ccc4ccccc4n3)OC3CCCC3)ccc2[nH]1", "note": "[Compound 51, (2S)-4-Amino-4-oxo-2-[(2-quinolinylcarbonyl)amino]butanamido N-(1S,2R)-1-benzyl-3-[(cyclopentyloxy)(2-{(methoxycarbonyl)amino]-1H-benzimidazol-5-ylsulfonyl)amino]-2-hydroxypropylcarbamate]", "values": [{"measurement": "pIC50", "setting": "[1]; [3]", "result": "6.30 to 7.00"}, {"measurement": "pKi", "setting": "[2]; [4]", "result": "> 9.00"}]}
{"smiles": "COc1ccc(S(=O)(=O)N(C[C@@H](O)[C@H](Cc2ccccc2)NC(=O)O[C@H]2CCOC2)OC2CCCCC2)cc1", "note": "[Compound 64, (3S)tetrahydro-3-furanyl N-((1S,2R)-1-benzyl-3-(cyclohexyloxy)[(4-methoxyphenyl)sulfonyl]amino-2-hydroxypropyl)carbamate]", "values": [{"measurement": "pIC50", "setting": "[1]; [3]", "result": "< 6.00"}, {"measurement": "pKi", "setting": "[2]", "result": "> 9.00"}]}
{"smiles": "N#CCNc1cccc(S(=O)(=O)N(CC(O)C(Cc2ccccc2)NC(=O)OC2COC3OCCC23)OC2CCCC2)c1", "note": "[Compound 86, (3R,3aS,6aR)hexahydrofuro[2,3-b]furan-3-yl N-(1S,2R)-1-benzyl-3-[(3-[(cyanomethyl)amino]phenylsulfonyl)(cyclopentyloxy)amino]-2-hydroxypropylcarbamate and (3S,3aR,6aS)hexahydrofuro[2,3-b]furan-3-yl N-(1S,2R)-1-benzyl-3-[(3-[(cyanomethyl)amino]phenylsulfonyl)(cyclopentyloxy)amino]-2-hydroxypropylcarbamate]", "values": [{"measurement": "pIC50", "setting": "[1]; [3]", "result": "≥ 7.00"}, {"measurement": "pKi", "setting": "[2]; [4]", "result": "> 9.00"}]}
{"smiles": "COc1ccc(S(=O)(=O)N(C[C@@H](O)[C@H](Cc2ccccc2)NC(=O)C(C)CS(C)(=O)=O)OC2CCCC2)cc1", "note": "(stereo partly drawn) [Compound 115, 1N-(3-Methylsulfonylisobutyryl)-(1S,2R)-1-benzyl-3-(cyclopentyloxy)[4-methoxyphenylsulfonyl]amino-2-hydroxypropylamine]", "values": [{"measurement": "pIC50", "setting": "[1]; [3]", "result": "6.00 to 6.30"}, {"measurement": "pKi", "setting": "[2]; [4]", "result": "< 7.00"}]}
